# Results taken from ChEMBL document CHEMBL1201862, “PubChem BioAssay data set” (2004).
# Activity calls are given as the source filed them.
# How the values were obtained:
# [1] = biological target: T1, Neuropeptide Y receptor type 2 (Homo sapiens, UniProt P49146); assay: IC50 for human NPY-Y2 blockade – cell-based, counter-screen for NPY-Y1 antagonist project, dose response (AID 1278); type: functional
# T1 sequence (P49146 whole entry): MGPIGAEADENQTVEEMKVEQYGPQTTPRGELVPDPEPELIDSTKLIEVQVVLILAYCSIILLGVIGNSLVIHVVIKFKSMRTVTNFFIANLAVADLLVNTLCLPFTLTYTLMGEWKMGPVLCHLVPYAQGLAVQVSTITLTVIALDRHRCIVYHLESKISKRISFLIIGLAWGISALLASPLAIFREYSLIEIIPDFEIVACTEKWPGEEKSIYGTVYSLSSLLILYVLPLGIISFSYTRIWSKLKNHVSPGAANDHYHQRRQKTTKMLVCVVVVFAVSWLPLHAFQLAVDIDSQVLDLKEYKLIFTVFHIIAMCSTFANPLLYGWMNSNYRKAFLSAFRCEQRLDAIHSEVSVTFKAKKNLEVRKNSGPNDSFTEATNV
# [2] = biological target: Melanin-concentrating hormone receptor 1 (Homo sapiens, UniProt Q99705); assay: Fluorescence-based counterscreen for antagonists of the G-protein coupled receptor 7 (GPR7): cell-based high throughput dose response assay to identify antagonists of the melanin-concentrating hormone receptor 1 (MCHR1).; type: functional
# [3] = biological target: Neuropeptides B/W receptor type 1 (Homo sapiens, UniProt P48145); assay: Fluorescence-based dose response cell-based high throughput screening assay to identify antagonists of the G-protein coupled receptor 7 (GPR7). [Related pubchem assays: 1952 (Screening assay (GPR7 antagonists).), 1880 (Summary AID.)]; type: functional
# [4] = biological target: T2, Neuropeptide Y receptor type 1 (Homo sapiens, UniProt P25929); assay: IC50 of human NPY-Y1 blockers – cell-based, dose response (AID 1277); type: functional
# T2 sequence (P25929 whole entry): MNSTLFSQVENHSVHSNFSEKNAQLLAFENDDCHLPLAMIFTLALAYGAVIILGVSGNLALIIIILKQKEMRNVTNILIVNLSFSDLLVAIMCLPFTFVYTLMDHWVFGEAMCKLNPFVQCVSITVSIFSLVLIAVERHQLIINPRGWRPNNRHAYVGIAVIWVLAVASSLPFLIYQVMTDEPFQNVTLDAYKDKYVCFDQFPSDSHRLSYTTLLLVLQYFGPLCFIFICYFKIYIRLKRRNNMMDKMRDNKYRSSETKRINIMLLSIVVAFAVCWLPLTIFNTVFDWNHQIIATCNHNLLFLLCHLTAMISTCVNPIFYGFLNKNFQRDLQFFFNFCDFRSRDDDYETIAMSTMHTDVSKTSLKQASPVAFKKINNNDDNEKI
# Bcl-2-related protein A1 [5] = biological target: T3, Bcl-2-related protein A1 (Mus musculus, UniProt Q07440); assay: small-molecule antagonists of Bfl-1/BH3 interaction – biochemical, TR-FRET, mouse Bfl-1, confirmation (AID 621);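 note: TR-FRET binding of GST-Bfl-1 to FITC-labelled Bid peptide via terbium antibody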
# T3 sequence (Q07440 whole entry): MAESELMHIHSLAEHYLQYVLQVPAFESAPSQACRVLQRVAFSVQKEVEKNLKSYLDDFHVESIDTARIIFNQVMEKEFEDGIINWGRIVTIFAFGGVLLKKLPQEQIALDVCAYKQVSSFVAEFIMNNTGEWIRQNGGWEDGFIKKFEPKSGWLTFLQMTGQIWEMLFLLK
# Tumor necrosis factor = Tumor necrosis factor (Homo sapiens, UniProt P01375); assay: analog potency on TNFa NF-kB signaling – cell-based, set 3, SAR follow-up (AID 2801); type: functional
# Bcl-2-related protein A1 [6] = biological target: T3, Bcl-2-related protein A1; assay: Bfl-1 binding inhibitors, SAR follow-up, biochemical, fluorescence polarization (AID 1070)
# [7] = biological target: Glyceraldehyde-3-phosphate dehydrogenase (Homo sapiens, UniProt P04406)
# [8] = biological target: Nucleotide-binding oligomerization domain-containing protein 2 (Homo sapiens, UniProt Q9HC29); assay: inhibition of MDP-driven NOD2 NF-kB reporter – cell-based, set 3, SAR follow-up (AID 2799); type: functional
# HEK293 = assay: SAR analysis of compounds that are cytotoxic to HEK293 - Set 3. [Related pubchem assays (depositor defined):AID1575, AID1578, AID1848, AID1849, AID2001, AID2333, AID2334, AID2335, AID2337, AID2469]; type: functional, cell-based; settings: Homo sapiens
# [9] = biological target: T4, Nucleotide-binding oligomerization domain-containing protein 1 (Homo sapiens, UniProt Q9Y239); assay: SAR analysis of compounds that inhibit NOD1 - Set 3. [Related pubchem assays (depositor defined):AID1566, AID1575, AID1578, AID1849, AID1852, AID2333, AID2335, AID2466]; type: functional
# T4 sequence (Q9Y239 whole entry): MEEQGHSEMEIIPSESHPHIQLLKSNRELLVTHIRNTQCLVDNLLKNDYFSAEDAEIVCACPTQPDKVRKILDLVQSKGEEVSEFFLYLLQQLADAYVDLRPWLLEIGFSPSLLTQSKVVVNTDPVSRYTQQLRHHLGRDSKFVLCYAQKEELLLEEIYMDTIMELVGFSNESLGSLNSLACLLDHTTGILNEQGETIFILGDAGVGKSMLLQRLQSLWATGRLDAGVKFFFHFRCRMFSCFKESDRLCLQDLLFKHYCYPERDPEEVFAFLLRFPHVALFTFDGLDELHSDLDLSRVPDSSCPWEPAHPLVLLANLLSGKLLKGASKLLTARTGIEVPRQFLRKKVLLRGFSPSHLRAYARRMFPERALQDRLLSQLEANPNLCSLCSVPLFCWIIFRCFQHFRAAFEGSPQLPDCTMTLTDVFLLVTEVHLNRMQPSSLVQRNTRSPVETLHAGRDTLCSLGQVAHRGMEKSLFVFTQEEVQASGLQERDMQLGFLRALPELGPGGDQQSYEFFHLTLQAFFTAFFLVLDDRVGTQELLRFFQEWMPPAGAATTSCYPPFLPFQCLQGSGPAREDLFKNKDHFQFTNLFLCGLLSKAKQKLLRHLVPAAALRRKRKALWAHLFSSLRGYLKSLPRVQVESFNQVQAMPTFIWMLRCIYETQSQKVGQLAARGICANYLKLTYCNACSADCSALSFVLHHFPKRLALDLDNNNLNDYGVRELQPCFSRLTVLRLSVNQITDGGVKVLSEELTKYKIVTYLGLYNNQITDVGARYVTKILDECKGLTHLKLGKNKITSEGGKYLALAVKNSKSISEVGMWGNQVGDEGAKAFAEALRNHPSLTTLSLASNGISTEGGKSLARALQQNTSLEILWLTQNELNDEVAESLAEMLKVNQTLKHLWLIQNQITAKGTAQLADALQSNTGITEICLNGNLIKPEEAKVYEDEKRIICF
# [10] = A Cell Based Assay for the Identification of Probe candidate Compounds with Anti- Venezuelan Equine Encephalitis virus. [Related pubchem assays: 2409, 2419, 1621, 2238, 2405, 2024, 2065, 2402, 2414, 1635, 1650, 2244 ]; type: functional
# Vero [11] = assay: Vero cell viability after compound exposure – synthesized analogs, set II, cytotoxicity control for West Nile virus antiviral project, SAR follow-up (AID 2402); type: functional; settings: Chlorocebus sabaeus
# Vero [12] = assay: Vero 76 cell viability after compound exposure – Vero 76 cells, synthesized analogs, cytotoxicity control for West Nile virus antiviral project, SAR follow-up (AID 2414); type: functional; settings: Chlorocebus sabaeus
# NADPH oxidase 1 = NADPH oxidase 1 (Homo sapiens, UniProt Q9Y5S8); type: functional, cell-based;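 note: Cell-based assay with luminescence read-out, IC50 derived from inhibitor dose-response curves; intracellular ROS from endogenous NOX1 in intact HT29 colon cancer cells; potency of inhibitors that lower the ROS luminescence signal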
# [13] = mRNA 3' processing disruption, beta-gal signal increase – luminescence, S. cerevisiae SKY197-pL101, dose response (AID 2525); type: functional, cell-based
# [14] = Luminescence Cell-Based Dose Confirmation HTS to Identify Inhibitors of Polyadenylation.; type: functional
# [15] = biological target: Protein-tyrosine kinase 2-beta (Homo sapiens, UniProt Q14289);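 note: potency of inhibitors of PYK2 kinase phosphorylation of poly-GT substrate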
# Bcl-2-like protein 10 = biological target: T5, Bcl-2-like protein 10 (Homo sapiens, UniProt Q9HD36); assay: Concentration-response of Bcl-B inhibitors by biochemical FP with TR3 (AID 1243); type: functional
# T5 sequence (Q9HD36 whole entry): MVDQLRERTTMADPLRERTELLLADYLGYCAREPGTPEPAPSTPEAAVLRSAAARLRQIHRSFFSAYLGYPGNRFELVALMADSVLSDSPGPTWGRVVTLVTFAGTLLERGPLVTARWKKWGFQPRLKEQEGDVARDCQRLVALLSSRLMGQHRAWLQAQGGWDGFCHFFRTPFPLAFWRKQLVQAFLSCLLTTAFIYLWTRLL
# [16] = biological target: Lysosomal acid glucosylceramidase (Homo sapiens, UniProt P04062); assay: Dose response cell-based high throughput screening assay to identify enhancers of beta-glucosidase activity. [Related pubchem assays: 784 ]; type: functional
# [17] = biological target: Peroxisome proliferator-activated receptor gamma/Nuclear receptor corepressor 2 (Homo sapiens, UniProt P37231+Q9Y618); type: functional
# [18] = biological target: Photoreceptor-specific nuclear receptor (Homo sapiens, UniProt Q9Y5X4); type: functional;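 note: potency for compounds that break the NR2E3 corepressor complex and count as activators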
# Streptococcus = assay: GAS UMAA2166 growth inhibition – luminescence, BacTiterGlo, counter-screen for streptokinase expression inhibitor project, dose response (AID 1915); type: functional, organism-based;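 note: potency for reduction of bacterial viability or growth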
# cells [19] = type: functional, cell-based
# Nonstructural protein 1 = Nonstructural protein 1 (Influenza A virus, UniProt Q194T2); type: functional, Influenza A virus (A/California/07/2009(H1N1))
# cells [20] = type: functional, cell-based; remark: listed apart in the source
# [21] = tested on: Streptococcus sp. 'group A'; assay: Streptococcus pyogenes SK(-)GAS viability under kanamycin – luminescence, BacTiterGlo, confirmation, counter-screen for streptokinase expression inhibitor project, dose response (AID 1900); type: functional, organism-based
# [22] = Luminescence-based counterscreen assay for KLF5 inhibitors: dose response cell-based high throughput screening assay to identify cytotoxic compounds using the IEC-6 intestinal epithelial cell line. [Related pubchem assays: 1700 (Primary screen.), 1834 (Confirmation screen.), 1858 (Summary AID.), 1905 (Counterscreen.)]; type: functional
# [23] = biological target: T6, Alkaline phosphatase, tissue-nonspecific isozyme (Homo sapiens, UniProt P05186)
# T6 sequence (P05186 whole entry): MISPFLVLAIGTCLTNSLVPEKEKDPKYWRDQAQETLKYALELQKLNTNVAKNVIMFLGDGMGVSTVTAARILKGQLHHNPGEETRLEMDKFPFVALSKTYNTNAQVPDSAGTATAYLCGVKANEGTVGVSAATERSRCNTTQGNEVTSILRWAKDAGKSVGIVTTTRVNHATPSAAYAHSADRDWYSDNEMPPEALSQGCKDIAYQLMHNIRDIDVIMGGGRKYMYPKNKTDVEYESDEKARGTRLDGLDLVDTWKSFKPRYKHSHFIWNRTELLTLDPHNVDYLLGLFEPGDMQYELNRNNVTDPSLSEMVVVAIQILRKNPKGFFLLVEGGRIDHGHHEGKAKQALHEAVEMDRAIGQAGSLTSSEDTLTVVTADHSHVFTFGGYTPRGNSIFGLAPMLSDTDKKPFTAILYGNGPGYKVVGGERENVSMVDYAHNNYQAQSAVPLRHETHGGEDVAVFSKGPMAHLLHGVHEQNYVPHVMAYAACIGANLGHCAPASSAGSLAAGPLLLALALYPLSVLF
# Sequence of Melanin-concentrating hormone receptor 1 (Q99705 whole entry): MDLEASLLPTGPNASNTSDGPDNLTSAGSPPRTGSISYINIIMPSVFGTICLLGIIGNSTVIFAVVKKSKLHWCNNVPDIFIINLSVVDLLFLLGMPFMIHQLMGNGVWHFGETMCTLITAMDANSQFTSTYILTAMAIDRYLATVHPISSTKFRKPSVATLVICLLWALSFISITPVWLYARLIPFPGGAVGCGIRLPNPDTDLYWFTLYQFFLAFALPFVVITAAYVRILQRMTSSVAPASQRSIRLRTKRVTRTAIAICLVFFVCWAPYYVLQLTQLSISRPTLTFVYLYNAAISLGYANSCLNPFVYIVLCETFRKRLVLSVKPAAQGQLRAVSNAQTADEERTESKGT
# Sequence of Nucleotide-binding oligomerization domain-containing protein 2 (Q9HC29 whole entry, the tested form may be a part): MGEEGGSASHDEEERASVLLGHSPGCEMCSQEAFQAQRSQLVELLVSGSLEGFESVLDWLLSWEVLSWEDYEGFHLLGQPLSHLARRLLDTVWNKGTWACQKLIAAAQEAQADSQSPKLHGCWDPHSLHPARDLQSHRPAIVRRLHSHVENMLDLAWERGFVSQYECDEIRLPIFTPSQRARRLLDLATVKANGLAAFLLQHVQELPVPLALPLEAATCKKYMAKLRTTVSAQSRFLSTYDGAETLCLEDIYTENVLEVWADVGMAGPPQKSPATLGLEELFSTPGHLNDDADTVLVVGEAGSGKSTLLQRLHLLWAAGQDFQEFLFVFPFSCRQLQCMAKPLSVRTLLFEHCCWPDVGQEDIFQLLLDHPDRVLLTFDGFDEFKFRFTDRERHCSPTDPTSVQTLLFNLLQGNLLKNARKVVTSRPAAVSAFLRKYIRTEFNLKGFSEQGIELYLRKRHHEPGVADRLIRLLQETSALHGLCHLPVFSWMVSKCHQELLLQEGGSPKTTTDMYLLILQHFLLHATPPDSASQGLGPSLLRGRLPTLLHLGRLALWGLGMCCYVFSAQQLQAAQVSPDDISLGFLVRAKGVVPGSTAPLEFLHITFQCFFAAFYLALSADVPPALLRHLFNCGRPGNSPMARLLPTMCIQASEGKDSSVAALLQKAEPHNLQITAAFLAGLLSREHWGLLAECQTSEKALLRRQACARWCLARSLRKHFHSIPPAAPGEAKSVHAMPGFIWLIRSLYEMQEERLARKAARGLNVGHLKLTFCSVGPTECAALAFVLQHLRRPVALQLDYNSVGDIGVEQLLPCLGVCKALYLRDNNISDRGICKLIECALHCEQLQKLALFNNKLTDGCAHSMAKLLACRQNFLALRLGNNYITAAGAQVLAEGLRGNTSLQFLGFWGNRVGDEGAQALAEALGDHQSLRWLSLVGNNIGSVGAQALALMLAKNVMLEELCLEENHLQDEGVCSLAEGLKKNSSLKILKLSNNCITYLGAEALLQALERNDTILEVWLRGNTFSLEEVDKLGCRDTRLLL
# Sequence of Protein-tyrosine kinase 2-beta (Q14289 whole entry): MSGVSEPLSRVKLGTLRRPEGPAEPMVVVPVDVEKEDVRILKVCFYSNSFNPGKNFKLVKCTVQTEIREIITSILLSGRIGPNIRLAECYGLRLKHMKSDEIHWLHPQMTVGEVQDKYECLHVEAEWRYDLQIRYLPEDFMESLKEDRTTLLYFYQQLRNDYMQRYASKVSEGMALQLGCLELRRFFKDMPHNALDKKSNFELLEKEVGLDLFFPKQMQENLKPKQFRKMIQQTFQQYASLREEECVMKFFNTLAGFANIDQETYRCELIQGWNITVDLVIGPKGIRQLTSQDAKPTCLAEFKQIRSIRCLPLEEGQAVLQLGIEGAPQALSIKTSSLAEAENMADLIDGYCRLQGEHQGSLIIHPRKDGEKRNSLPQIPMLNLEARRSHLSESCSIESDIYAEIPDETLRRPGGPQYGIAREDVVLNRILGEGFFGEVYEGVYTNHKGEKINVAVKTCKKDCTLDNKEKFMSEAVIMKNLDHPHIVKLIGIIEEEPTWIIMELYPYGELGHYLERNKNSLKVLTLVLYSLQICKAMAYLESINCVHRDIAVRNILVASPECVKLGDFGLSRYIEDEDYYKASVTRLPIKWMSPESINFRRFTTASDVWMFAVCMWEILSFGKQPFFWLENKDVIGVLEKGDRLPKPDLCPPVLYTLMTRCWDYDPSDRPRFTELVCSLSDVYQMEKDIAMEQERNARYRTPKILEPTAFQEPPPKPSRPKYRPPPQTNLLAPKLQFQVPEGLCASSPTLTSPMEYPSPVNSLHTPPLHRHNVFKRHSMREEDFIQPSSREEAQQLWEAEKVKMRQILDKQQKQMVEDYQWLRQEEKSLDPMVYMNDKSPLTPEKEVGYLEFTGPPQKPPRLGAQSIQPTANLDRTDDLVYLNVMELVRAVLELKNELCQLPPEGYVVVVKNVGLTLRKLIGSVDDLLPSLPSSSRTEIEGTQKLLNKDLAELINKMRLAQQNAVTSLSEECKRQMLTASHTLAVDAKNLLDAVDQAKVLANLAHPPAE
# Sequence of Neuropeptides B/W receptor type 1 (P48145 whole entry): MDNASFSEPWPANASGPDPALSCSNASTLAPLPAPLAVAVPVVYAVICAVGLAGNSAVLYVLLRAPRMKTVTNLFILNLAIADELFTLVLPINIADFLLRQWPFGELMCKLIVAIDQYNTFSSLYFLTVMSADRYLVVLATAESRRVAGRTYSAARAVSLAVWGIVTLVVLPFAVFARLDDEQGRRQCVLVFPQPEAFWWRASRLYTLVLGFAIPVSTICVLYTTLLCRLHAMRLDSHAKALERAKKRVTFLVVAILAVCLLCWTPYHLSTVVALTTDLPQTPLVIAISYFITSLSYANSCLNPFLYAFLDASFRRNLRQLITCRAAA
# Sequence of Nonstructural protein 1 (Q194T2 whole entry): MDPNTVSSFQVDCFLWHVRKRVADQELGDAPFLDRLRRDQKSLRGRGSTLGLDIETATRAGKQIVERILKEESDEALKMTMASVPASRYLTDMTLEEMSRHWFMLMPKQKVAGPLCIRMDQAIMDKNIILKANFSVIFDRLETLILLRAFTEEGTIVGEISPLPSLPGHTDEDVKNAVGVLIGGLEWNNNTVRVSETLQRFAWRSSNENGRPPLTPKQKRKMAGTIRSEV
# Sequence of Photoreceptor-specific nuclear receptor (Q9Y5X4 whole entry): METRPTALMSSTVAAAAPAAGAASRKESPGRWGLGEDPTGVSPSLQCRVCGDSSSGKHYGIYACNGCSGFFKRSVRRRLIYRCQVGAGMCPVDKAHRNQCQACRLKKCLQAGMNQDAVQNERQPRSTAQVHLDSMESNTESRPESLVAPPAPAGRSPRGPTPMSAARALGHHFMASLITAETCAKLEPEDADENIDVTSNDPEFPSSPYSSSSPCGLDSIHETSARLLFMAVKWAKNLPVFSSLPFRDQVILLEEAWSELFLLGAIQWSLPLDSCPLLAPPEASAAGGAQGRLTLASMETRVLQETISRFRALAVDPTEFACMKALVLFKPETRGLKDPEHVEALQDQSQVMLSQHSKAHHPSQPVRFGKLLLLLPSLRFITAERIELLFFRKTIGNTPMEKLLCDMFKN
# Sequence of Glyceraldehyde-3-phosphate dehydrogenase (P04406 whole entry, the tested form may be a part): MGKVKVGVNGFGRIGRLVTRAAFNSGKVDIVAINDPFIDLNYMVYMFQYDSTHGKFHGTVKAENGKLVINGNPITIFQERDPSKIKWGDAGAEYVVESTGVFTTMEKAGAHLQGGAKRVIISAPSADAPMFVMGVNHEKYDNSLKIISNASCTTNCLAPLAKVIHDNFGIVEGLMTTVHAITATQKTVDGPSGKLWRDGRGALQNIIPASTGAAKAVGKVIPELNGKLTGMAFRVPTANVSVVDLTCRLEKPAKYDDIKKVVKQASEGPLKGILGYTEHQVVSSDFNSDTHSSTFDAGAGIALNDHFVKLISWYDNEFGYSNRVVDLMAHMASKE
# Sequence of NADPH oxidase 1 (Q9Y5S8 whole entry): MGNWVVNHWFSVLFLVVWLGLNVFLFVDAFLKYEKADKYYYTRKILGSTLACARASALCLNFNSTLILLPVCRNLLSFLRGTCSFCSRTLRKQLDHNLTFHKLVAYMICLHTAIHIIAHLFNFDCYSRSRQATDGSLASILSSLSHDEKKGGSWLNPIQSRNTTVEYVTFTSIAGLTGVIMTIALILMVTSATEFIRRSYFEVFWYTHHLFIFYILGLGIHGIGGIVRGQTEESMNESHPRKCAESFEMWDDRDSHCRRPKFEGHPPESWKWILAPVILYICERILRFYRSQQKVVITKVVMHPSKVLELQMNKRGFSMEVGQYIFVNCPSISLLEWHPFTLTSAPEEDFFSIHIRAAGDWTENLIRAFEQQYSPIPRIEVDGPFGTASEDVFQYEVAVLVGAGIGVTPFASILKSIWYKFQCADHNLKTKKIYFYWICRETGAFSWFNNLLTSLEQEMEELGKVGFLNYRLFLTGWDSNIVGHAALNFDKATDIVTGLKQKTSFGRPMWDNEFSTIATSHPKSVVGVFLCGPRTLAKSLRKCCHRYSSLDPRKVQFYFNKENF
# Sequence of Lysosomal acid glucosylceramidase (P04062 whole entry): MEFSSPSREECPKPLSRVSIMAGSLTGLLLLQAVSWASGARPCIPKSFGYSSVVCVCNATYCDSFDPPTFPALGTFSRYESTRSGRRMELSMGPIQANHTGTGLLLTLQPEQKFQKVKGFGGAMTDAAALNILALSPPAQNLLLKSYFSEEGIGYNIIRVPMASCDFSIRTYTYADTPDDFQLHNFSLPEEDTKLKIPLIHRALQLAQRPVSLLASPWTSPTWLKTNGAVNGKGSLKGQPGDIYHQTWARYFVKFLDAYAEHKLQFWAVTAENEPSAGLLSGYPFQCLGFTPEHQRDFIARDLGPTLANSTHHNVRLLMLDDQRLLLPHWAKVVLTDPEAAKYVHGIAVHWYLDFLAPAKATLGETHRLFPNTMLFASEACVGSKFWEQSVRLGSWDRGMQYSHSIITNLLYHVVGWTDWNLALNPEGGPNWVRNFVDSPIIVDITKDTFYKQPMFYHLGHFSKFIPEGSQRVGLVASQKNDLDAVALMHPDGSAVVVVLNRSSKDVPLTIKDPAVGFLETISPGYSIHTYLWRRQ
compound,measurement,setting,value
CC(NC(=O)Cn1c(NCCO)nc2ccccc21)C1CC2CCC1C2 (centres undefined),IC50,[1],> 35 µM (not active)
same,IC50,[2],> 43.8 µM (not active)
same,IC50,[3],> 14.6 µM (not active)
same,IC50,[4],> 35 µM (not active)
Nc1cc(-c2ccc(Cl)cc2)nn1S(=O)(=O)c1c(F)c(F)c(F)c(F)c1F,IC50,Bcl-2-related protein A1 [5],> 100 µM (not active)
same,IC50,Tumor necrosis factor,> 20 µM (inactive)
same,IC50,Bcl-2-related protein A1 [6],> 100 µM (not active)
same,IC50,[7],> 100 µM (not active)
same,IC50,[8],> 20 µM (inactive)
same,IC50,HEK293,> 20 µM (inactive)
same,IC50,[9],> 20 µM (inactive)
Cc1ccc2nc(SCC(=O)Nc3ccc4c(c3)CCC4)n(-c3ccccc3)c(=O)c2c1,IC50,[10],7.73 µM (active)
same,CC50,Vero [11],> 200 µM (active)
same,CC50,Vero [12],130 µM (active)
c1ccc(-c2nc(-c3ccccn3)c(-c3ccccn3)[nH]2)cc1,IC50,NADPH oxidase 1,> 17 µM (not active)
O=C(COC(=O)Cc1ccc(S(=O)(=O)N2CCOCC2)s1)NCc1ccc(Cl)cc1,EC50,[13],> 500 µM (not active)
same,EC50,[14],99.6 µM (active)
O=C(O)c1ccccc1OCCOCCOc1ccccc1C(=O)O,IC50,[15],18.2 µM (not active)
O=C(COc1ccc(Cl)cc1Cl)Nc1nnc(-c2ccco2)s1,EC50,Bcl-2-like protein 10,17 µM (active)
NC(=NO)c1nc(N2CCCCC2)nc(N2CCCCC2)n1,EC50,[16],> 50 µM (not active)
Cc1ccccc1CNc1ncnc2cc(Cl)ccc12,IC50,[17],2.38 µM (active)
same,IC50,[18],3.84 µM (active)
O=C(N/N=C/c1cc(O)ccc1Br)c1cccnc1,EC50,Streptococcus,4.86 µM (active)
same,EC50,cells [19],> 350 µM (not active)
same,IC50,Nonstructural protein 1,6.35 µM (active)
same,EC50,cells [20],165 µM (active)
same,EC50,[21],1.85 µM (active)
same,IC50,[22],4.8 µM (active)
Cn1c(=O)c2c(nc(N/N=C/c3ccco3)n2C)n(C)c1=O,EC50,[23],88.9 µM (not active)
